Measurements as given in paper PMC7664216, “An Odorant Binding Protein (SaveOBP9) Involved in Chemoreception of the Wheat Aphid Sitobion avenae” (International Journal of Molecular Sciences, 2020).
“Also recorded” adds a separate entry of the source. Read-outs that look alike come from different tables or passages of the source.

How the values were obtained:
SaveOBP9 = SaveOBP9 (Sitobion avenae, UniProt A0A1I9ZLB6); experiment: Fluorescence competitive ligand binding assay with probe 1-NPN; conditions: 1-NPN probe
Protocol: Methanol (spectrophotometric-grade) was used to prepare the standard solution of each tested ligand (Sigma Aldrich, St. Louis, MO, USA). The binding ability of 1-NPN was measured by adding 1-NPN (1 mM) into protein solution (2 μM L^−1) diluted with Tris-HCl (30 mM), and the final concentration was made to 0 to 20 μM L^−1 at room temperature.
The ligand’s binding with SaveOBP9 was conducted with three independent replicates.

Sitobion avenae = experiment: Y-tube olfactometer behavioral bioassay; type: in vivo; conditions: for Behavioral response of S. avenae: wingless adults, odor 0.10% (v/v) vs liquid paraffin control, pre-RNAi; for Post-RNAi behavioral response of S. avenae: after 3 days of dsSaveOBP9 feeding (50 ng/µL), compared to dsGFP and Control
Description: Behavioral responses of Sitobion avenae were examined by using a glass Y-tube olfactometer (base = 2.0 cm diameter by 14 cm length, arms = 2.0 cm diameter by 13 cm length) using 7 different volatile compounds (Sigma-Aldrich, St. Louis, MO, USA). Air was passed through the activated charcoal for filtration at the continuous rate of 0.5 L/min and humidified using deionized water followed by the splitting of air between two arms of the olfactometer. One arm contained liquid paraffin (control) and the other had the test ligand. In addition, both chambers were connected to the central arm of the Y-tube. An aliquot of odors and liquid paraffin were loaded on with the concentration of 0.10% (v/v). Aphids were then placed in the trunk. Each insect was allowed 15 min to respond to the treatment, and the numbers of aphids showing attraction, repulsion, or no response were counted. Three replications (20 wingless aphids in each replication) for each group were applied.
Y-tube bioassays were carried out before and after dietary RNAi application to confirm the SaveOBP9 gene-silencing outcome. Two treatments containing liquid paraffin and seven compounds (Ki < 10 μM), 2-ethyl1-hexanol, decanal, tetradecane, hexadecane, octanal, α-farnesene, and hexanal, were used. Three treatments containing Control, dsGFP feeding and dsRNA feeding were tested in behavioral trials after 3 days of feeding. For the post-RNAi bioassays, individuals were tested using the compounds: Tetradecane, octanal, decanal, and hexadecane. These four ligands were carefully chosen based on the observation of significant responses of S.avenae to these compounds in bioassays performed prior to the application of dietary RNAi.

AlinOBP1 = test system: AlinOBP1; set-up: method as in PMID 21541988; conditions: cited from earlier work
SaveOBP3 = test system: SaveOBP3; set-up: method as in PMID 22306433; conditions: cited from earlier work
SaveOBP2 = test system: SaveOBP2; set-up: method as in PMID 22306433; conditions: cited from earlier work
SaveOBP7 = test system: SaveOBP7; set-up: method as in PMID 22306433; conditions: cited from earlier work
Aphis fabae = test system: Aphis fabae; set-up: method as in PMID 18584254; conditions: Black bean aphid Aphis fabae; cited from earlier work

SaveOBP9, sequence (A0A1I9ZLB6 entry or part of it): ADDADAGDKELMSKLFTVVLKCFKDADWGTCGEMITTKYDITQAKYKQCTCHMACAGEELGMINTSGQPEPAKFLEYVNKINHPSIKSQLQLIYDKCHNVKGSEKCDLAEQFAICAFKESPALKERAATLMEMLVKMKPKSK

Molecule | IC50 (SaveOBP9; pH 5.0, read-out: IC50) [µM] | Ki (SaveOBP9; pH 5.0, read-out: Ki) [µM] | IC50 (SaveOBP9; pH 7.4, read-out: IC50) [µM] | Ki (SaveOBP9; pH 7.4, read-out: Ki) [µM] | IC50 (SaveOBP9; IC50, pH 5.0) [µM] | IC50 (SaveOBP9; IC50, pH 7.4) [µM] | Ki (SaveOBP9; Ki, pH 5.0) [µM] | Ki (SaveOBP9; Ki, pH 7.4) [µM] | also measured
CC12CCC(CC1=O)C2(C)C (racemic) [(±)-Camphor] | 17.4 | 15.7 | 48.2 | 42.8 | – | – | – | – | –
CC1=CCC2C(C1)C2(C)C (single isomer, unassigned; (+)) [(+)-3-Carene] | 39.9 | 36.1 | 14.7 | 13 | – | – | – | – | –
C=CC(O)CCCCC (centres unmarked) [1-Octen-3-ol] | 34.2 | 30.9 | 24.2 | 21.5 | – | – | – | – | –
CCCCC(CC)CO (centres unmarked) [2-Ethyl-1-hexanol] | 43.8 | 39.6 | 11.2 | 9.93 | – | – | – | – | Behavioral response of S. avenae (Sitobion avenae): did not show stimuli; Binding affinity (AlinOBP1): high binding affinity
C=CCCN=C=S [3-Butenyl isothiocyanate] | – | – | – | – | 26.3 | 52.7 | 23.8 | 46.8 | –
CC(=O)c1ccccc1 [Acetophenone] | 30.8 | 27.8 | 13 | 11.5 | – | – | – | – | –
O=Cc1ccccc1 [Benzaldehyde] | – | – | – | – | 41 | 109 | 37 | 96.5 | –
Cc1cc(C(C)(C)C)c(O)c(C(C)(C)C)c1 [Butylated Hydroxytoluene] | 8.8 | 7.95 | 45.6 | 40.5 | – | – | – | – | –
CCCCCCCCCC=O [Decanal] | 19.8 | 17.9 | 9.95 | 8.84 | – | – | – | – | Binding ability (SaveOBP3): None of the three SaveOBPs have the ability to bind; Post-RNAi behavioral response of S. avenae (Sitobion avenae): non-significant preference; Behavioral response of S. avenae (Sitobion avenae): significantly showed attractive responses; also recorded: strongly attracted S. avenae; Binding ability (SaveOBP2): None of the three SaveOBPs have the ability to bind; Binding ability (SaveOBP7): None of the three SaveOBPs have the ability to bind; EAG response (Aphis fabae): significant electroantennography (EAG) response
CCCCCCCCCCCCCCCC [Hexadecane] | 14.6 | 13.2 | 10.9 | 9.68 | – | – | – | – | Binding ability (SaveOBP3): None of the three SaveOBPs have the ability to bind; Post-RNAi behavioral response of S. avenae (Sitobion avenae): non-significant preference; Behavioral response of S. avenae (Sitobion avenae): significantly showed attractive responses; also recorded: strongly attracted S. avenae; Binding ability (SaveOBP2): None of the three SaveOBPs have the ability to bind; Binding ability (SaveOBP7): None of the three SaveOBPs have the ability to bind
CCCCCC=O [Hexanal] | – | – | – | – | 16.8 | 8.23 | 15.2 | 7.31 | Behavioral response of S. avenae (Sitobion avenae): did not show stimuli
C=CC(C)(O)CCC=C(C)C (centres unmarked) [Linalool] | – | – | – | – | 11.8 | 24.1 | 10.7 | 21.4 | –
COC(=O)c1ccccc1O [Methyl salicylate] | – | – | – | – | 24.2 | 13.4 | 21.9 | 11.9 | –
c1ccc2ccccc2c1 [Naphthalene] | – | – | – | – | 30.3 | 13 | 27.4 | 11.5 | –
CCCCCCCCC=O [Nonanal] | 12.3 | 11.1 | 39.8 | 35.4 | – | – | – | – | –
CCCCCCCC=O [Octanal] | 20.3 | 18.3 | 8.79 | 7.8 | – | – | – | – | Binding ability (SaveOBP3): relatively moderate binding ability; Post-RNAi behavioral response of S. avenae (Sitobion avenae): non-significant preference; Behavioral response of S. avenae (Sitobion avenae): significantly showed attractive responses; also recorded: strongly attracted S. avenae; Binding ability (SaveOBP2): relatively moderate binding ability; Binding ability (SaveOBP7): no binding ability; EAG response (Aphis fabae): significant electroantennography (EAG) response

Molecule | IC50 (SaveOBP9; pH 5.0, read-out: IC50) [µM] | Ki (SaveOBP9; pH 5.0, read-out: Ki) [µM] | IC50 (SaveOBP9; pH 7.4, read-out: IC50) [µM] | Ki (SaveOBP9; pH 7.4, read-out: Ki) [µM] | IC50 (SaveOBP9; IC50, pH 5.0) [µM] | IC50 (SaveOBP9; IC50, pH 7.4) [µM] | Ki (SaveOBP9; Ki, pH 5.0) [µM] | Ki (SaveOBP9; Ki, pH 7.4) [µM] | also measured
CCCCCCCCCCCCCCC [Pentadecane] | 15.1 | 13.7 | 12.8 | 11.4 | – | – | – | – | –
C=C(C)[C@@H]1CC=C(C)CC1 [S-(−)-Limonene] | 11.5 | 10.4 | 32.1 | 28.5 | – | – | – | – | –
CCCCCCCCCCCCCC [Tetradecane] | 11.9 | 10.7 | 7.96 | 7.07 | – | – | – | – | Post-RNAi behavioral response of S. avenae (Sitobion avenae): non-significant preference; Behavioral response of S. avenae (Sitobion avenae): significantly showed attractive responses; also recorded: strongly attracted S. avenae
CC/C=C\CCO [cis-3-Hexen-1-ol] | – | – | – | – | 36.9 | 13.2 | 33.3 | 11.8 | –
CC/C=C\CCOC(C)=O [cis-3-Hexenyl acetate] | – | – | 29.7 | 26.4 | – | – | – | – | –
CCC/C=C/C=O [trans-2-Hexen-1-al] | – | – | – | – | 21.6 | 41.9 | 19.5 | 37.2 | –
CCC/C=C/CO [trans-2-Hexen-1-ol] | – | – | – | – | 21.7 | 14.5 | 19.6 | 12.9 | –
C=CC(=C)CC/C=C(\C)CCC=C(C)C [trans-β-farnesene] | – | – | – | – | – | – | – | – | Binding ability (SaveOBP3): could bind; Binding ability (SaveOBP7): could bind
C=C/C(C)=C/C/C=C(\C)CCC=C(C)C [α-Farnesene] | 9.51 | 8.59 | 10.3 | 9.11 | – | – | – | – | Behavioral response of S. avenae (Sitobion avenae): did not show stimuli
CC1=CCC2CC1C2(C)C (stereo not drawn) [α-Pinene] | – | – | – | – | 27.2 | 38 | 24.6 | 33.7 | –
CC1=CC[C@@H](C(C)(C)O)CC1 [α-Terpineol] | – | – | – | – | 37.4 | 26.2 | 33.8 | 23.3 | –
C=C1CCC2CC1C2(C)C (stereo not drawn) [β -Pinene] | – | – | – | – | 27.7 | 37.4 | 25.1 | 33.2 | –
C=C1CC/C=C(\C)CC[C@@H]2[C@@H]1CC2(C)C [β-Caryophyllene] | – | – | – | – | 622 | 52.4 | 562 | 46.6 | –
C=CC(=C)CCC=C(C)C [β-Myrcene] | 10.7 | 9.67 | 12.2 | 10.8 | – | – | – | – | –
(+)-Limonene oxide | 37.5 | 33.9 | 24.3 | 21.6 | – | – | – | – | –
